Data from ChEMBL document CHEMBL5375988, “AcGlcAs: A Novel P53-Targeting Arsenical with Potent Cellular Uptake and Cancer Cell Selectivity” (J Med Chem, 2023).
Activity calls are given as the source filed them. The rule behind the calls is not given here. Peptide text beside a SMILES is read from it. * marks the point of attachment. Cbz = O=C(OCc1ccccc1)*; CH2F = FC*

Experiments:
[1] = Plasma stability in monkey assessed as half life at […] measured upto 120 mins by LC-MS analysis; type: ADME, cell-free, Macaca mulatta; details: rhesus monkey
[2] = Plasma stability in human assessed as half life at […] measured upto 120 mins by LC-MS analysis; type: ADME, cell-free
[3] = Plasma stability in mouse assessed as half life at […] measured upto 120 mins by LC-MS analysis; type: ADME, cell-free
[4] = system: Cellular tumor antigen p53 (Homo sapiens), P04637 [V272M]; assay: Thermostabilization of recombinant p53 V272M mutant (unknown origin) […] assessed as increase in melting temperature at 1:15 ratio in HEPES at pH 7.5 by DSF analysis
NB-4 [5] = assay: Antiproliferative activity against human NB4 cells expressing PML/RARalpha assessed as cell growth inhibition measured after 48 hrs by CCK-8 assay; type: functional, cell-based
[6] = molecular target: T1, PML-RARalpha (Homo sapiens) (UniProt P10276+P29590); assay: Induction of Flag-tagged PML/RARalpha (unknown origin) degradation overexpressed in HEK293T cells at 0.3 to 1.5 uM incubated for 16 hrs by Western blot analysis; type: cell-based; details: dose 0.3-1.5 µM
T1 sequence (P10276 whole entry, looked up): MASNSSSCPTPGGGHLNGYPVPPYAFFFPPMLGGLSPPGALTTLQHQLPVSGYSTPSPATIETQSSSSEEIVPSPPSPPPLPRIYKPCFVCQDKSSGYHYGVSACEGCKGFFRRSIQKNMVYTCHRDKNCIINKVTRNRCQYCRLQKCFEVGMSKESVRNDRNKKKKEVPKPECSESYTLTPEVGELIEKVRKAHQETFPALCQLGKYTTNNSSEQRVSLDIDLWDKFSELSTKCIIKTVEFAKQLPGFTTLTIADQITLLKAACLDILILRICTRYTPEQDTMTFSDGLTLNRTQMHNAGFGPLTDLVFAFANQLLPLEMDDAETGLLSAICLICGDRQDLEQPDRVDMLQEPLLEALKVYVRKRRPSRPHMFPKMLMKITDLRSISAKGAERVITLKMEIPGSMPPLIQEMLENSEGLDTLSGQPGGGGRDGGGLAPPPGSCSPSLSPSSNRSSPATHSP
T1 sequence (P29590 whole entry, looked up): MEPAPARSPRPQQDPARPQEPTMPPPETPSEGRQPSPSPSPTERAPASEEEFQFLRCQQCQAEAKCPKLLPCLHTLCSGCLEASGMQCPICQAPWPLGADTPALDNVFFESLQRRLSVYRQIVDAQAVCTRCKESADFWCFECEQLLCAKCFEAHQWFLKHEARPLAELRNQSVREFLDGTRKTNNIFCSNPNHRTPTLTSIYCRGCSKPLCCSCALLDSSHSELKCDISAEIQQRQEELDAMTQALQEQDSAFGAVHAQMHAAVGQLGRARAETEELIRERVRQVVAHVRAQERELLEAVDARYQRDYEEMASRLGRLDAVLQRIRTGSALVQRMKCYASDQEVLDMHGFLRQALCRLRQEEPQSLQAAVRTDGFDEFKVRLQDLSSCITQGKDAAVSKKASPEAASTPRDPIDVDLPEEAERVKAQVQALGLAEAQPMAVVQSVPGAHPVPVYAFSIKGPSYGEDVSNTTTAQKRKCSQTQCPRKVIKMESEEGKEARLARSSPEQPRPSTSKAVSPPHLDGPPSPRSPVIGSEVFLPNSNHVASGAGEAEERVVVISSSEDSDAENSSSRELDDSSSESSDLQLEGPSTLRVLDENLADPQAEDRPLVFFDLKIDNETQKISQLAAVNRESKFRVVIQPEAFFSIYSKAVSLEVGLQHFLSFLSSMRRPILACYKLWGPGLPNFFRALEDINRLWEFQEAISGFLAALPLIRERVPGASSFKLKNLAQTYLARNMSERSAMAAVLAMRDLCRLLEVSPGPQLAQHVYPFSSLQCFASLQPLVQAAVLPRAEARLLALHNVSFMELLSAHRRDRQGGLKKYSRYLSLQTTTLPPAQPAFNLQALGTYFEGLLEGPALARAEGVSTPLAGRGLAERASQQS

NB-4 [7] = assay: Induction of granulocytic differentiation in human NB4 cells assessed as CD11b positive cells at 3 uM incubated for 1 hrs followed by replacement with fresh culture medium for 48 hrs by flow cytometry analysis relative to control; type: functional
NB-4 [8] = assay: Induction of apoptosis in human NB4 cells assessed as necrotic cells at 9 uM preincubated for 1 hrs followed by replacement with fresh culture medium and measured after 24 hrs by Annexin V-FITC/7AAD staining based flow cytometry assay (reference value: 0.10%); type: functional
[9] = Half life in iv dosed mouse; type: ADME, organism-based; details: in vivo
[10] = molecular target: T1, PML-RARalpha (Homo sapiens); assay: Induction of PML/RARalpha degradation in human NB4 cells assessed as residual protein level at 0.3 uM incubated for 1 hrs followed by replacement with fresh culture medium and measured after 16 hrs by Western blot analysis (reference value: 1); type: cell-based
[11] = molecular target: T1, PML-RARalpha (Homo sapiens); assay: Induction of PML/RARalpha degradation in human NB4 cells assessed as residual protein level at 1 uM incubated for 1 hrs followed by replacement with fresh culture medium and measured after 16 hrs by Western blot analysis (reference value: 1); type: cell-based
U-937 [12] = assay: Cytotoxicity against p53 null human U-937 cells harboring p53 V272M mutant incubated for 48 hrs by CCK-8 assay; type: functional, cell-based; details: U-937, 48 h
NB-4 [13] = assay: Induction of apoptosis in human NB4 cells assessed as early apoptotic cells at 3 uM preincubated for 1 hrs followed by replacement with fresh culture medium and measured after 24 hrs by Annexin V-FITC/7AAD staining based flow cytometry assay (reference value: 1.93%); type: functional
NB-4 [14] = assay: Induction of granulocytic differentiation in human NB4 cells assessed as increase in CD11b expression at 3 uM incubated for 1 hrs followed by replacement with fresh culture medium for 48 hrs by flow cytometry analysis (reference value: 1.44%); type: functional
[15] = molecular target: T1, PML-RARalpha (Homo sapiens); assay: Induction of PML/RARalpha degradation in human NB4 cells assessed as residual protein level at 9 uM incubated for 1 hrs followed by replacement with fresh culture medium and measured after 16 hrs by Western blot analysis (reference value: 1); type: cell-based
NB-4 [16] = assay: Induction of granulocytic differentiation in human NB4 cells assessed as CD11b positive cells at 9 uM incubated for 1 hrs followed by replacement with fresh culture medium for 48 hrs by flow cytometry analysis relative to control; type: functional
[17] = system: Cellular tumor antigen p53 (Homo sapiens), P04637 [V272M]; assay: Rescue of p53-V272M mutant transcriptional activity on PUMA promoter in human NCI-H1299 cells assessed as fold change in transcriptional activity at 10 uM pretreated for 10 mins to1 hr followed by replacement with fresh culture media and measured after 24 hrs by firefly/renilla based luciferase reporter assay; type: cell-based; details: filed as activator, time 10-60 min
NB-4 [18] = assay: Induction of granulocytic differentiation in human NB4 cells assessed as increase in CD11b expression at 9 uM incubated for 1 hrs followed by replacement with fresh culture medium for 48 hrs by flow cytometry analysis (reference value: 1.44%); type: functional
[19] = molecular target: T1, PML-RARalpha (Homo sapiens); assay: Induction of PML/RARalpha degradation in human NB4 cells assessed as residual protein level at 3 uM incubated for 1 hrs followed by replacement with fresh culture medium and measured after 16 hrs by Western blot analysis (reference value: 1); type: cell-based
NB-4 [20] = assay: Induction of apoptosis in human NB4 cells assessed as viable cells at 3 uM preincubated for 1 hrs followed by replacement with fresh culture medium and measured after 24 hrs by Annexin V-FITC/7AAD staining based flow cytometry assay (reference value: 94%); type: functional; details: read-out: Activity
NB-4 [21] = assay: Induction of apoptosis in human NB4 cells assessed as early apoptotic cells at 27 uM preincubated for 1 hrs followed by replacement with fresh culture medium and measured after 24 hrs by Annexin V-FITC/7AAD staining based flow cytometry assay (reference value: 1.93%); type: functional
U-937 [22] = assay: Cytotoxicity against p53 null human U-937 cells harboring empty vector incubated for 48 hrs by CCK-8 assay; type: functional, cell-based; details: U-937, 48 h
NB-4 [23] = assay: Induction of apoptosis in human NB4 cells assessed as necrotic cells at 27 uM preincubated for 1 hrs followed by replacement with fresh culture medium and measured after 24 hrs by Annexin V-FITC/7AAD staining based flow cytometry assay (reference value: 0.10%); type: functional
NB-4 [24] = assay: Induction of apoptosis in human NB4 cells assessed as viable cells at 27 uM preincubated for 1 hrs followed by replacement with fresh culture medium and measured after 24 hrs by Annexin V-FITC/7AAD staining based flow cytometry assay (reference value: 94%); type: functional; details: read-out: Activity
NB-4 [25] = assay: Induction of apoptosis in human NB4 cells assessed as late apoptotic cells at 27 uM preincubated for 1 hrs followed by replacement with fresh culture medium and measured after 24 hrs by Annexin V-FITC/7AAD staining based flow cytometry assay (reference value: 3.92%); type: functional
NB-4 [26] = assay: Induction of apoptosis in human NB4 cells assessed as early apoptotic cells at 9 uM preincubated for 1 hrs followed by replacement with fresh culture medium and measured after 24 hrs by Annexin V-FITC/7AAD staining based flow cytometry assay (reference value: 1.93%); type: functional
[27] = Half life in iv dosed rat; type: ADME, organism-based; details: in vivo
NB-4 [28] = assay: Induction of apoptosis in human NB4 cells assessed as late apoptotic cells at 9 uM preincubated for 1 hrs followed by replacement with fresh culture medium and measured after 24 hrs by Annexin V-FITC/7AAD staining based flow cytometry assay (reference value: 3.92%); type: functional
[29] = molecular target: T1, PML-RARalpha (Homo sapiens); assay: Induction of PML/RARalpha degradation in human NB4 cells assessed as residual protein level at 0.1 uM incubated for 1 hrs followed by replacement with fresh culture medium and measured after 16 hrs by Western blot analysis (reference value: 1); type: cell-based
[30] = Half life in po dosed human; type: ADME, organism-based; details: in vivo
NB-4 [31] = assay: Induction of apoptosis in human NB4 cells assessed as late apoptotic cells at 3 uM preincubated for 1 hrs followed by replacement with fresh culture medium and measured after 24 hrs by Annexin V-FITC/7AAD staining based flow cytometry assay (reference value: 3.92%); type: functional
NB-4 [32] = assay: Induction of apoptosis in human NB4 cells assessed as viable cells at 9 uM preincubated for 1 hrs followed by replacement with fresh culture medium and measured after 24 hrs by Annexin V-FITC/7AAD staining based flow cytometry assay (reference value: 94%); type: functional; details: read-out: Activity
[33] = Half life in iv dosed human; type: ADME, organism-based; details: in vivo
NB-4 [34] = assay: Induction of apoptosis in human NB4 cells assessed as necrotic cells at 3 uM preincubated for 1 hrs followed by replacement with fresh culture medium and measured after 24 hrs by Annexin V-FITC/7AAD staining based flow cytometry assay (reference value: 0.10%); type: functional
[35] = molecular target: T1, PML-RARalpha (Homo sapiens); assay: Induction of Flag-tagged PML/RARalpha (unknown origin) degradation overexpressed in HEK293T cells at 4.2 to 21 uM incubated for 16 hrs by Western blot analysis; type: cell-based; details: dose 4.2-21 µM
[36] = Plasma stability in dog assessed as half life at […] measured upto 120 mins by LC-MS analysis; type: ADME, cell-free, Canis lupus familiaris
[37] = system: GTPase KRas (Homo sapiens), P01116 [G12C]; assay: Binding affinity to KRAS-G12C mutant (unknown origin) with exposed Cys12 assessed as increase in melting temperature at 1:15 ratio in HEPES at pH 7.5 by DSF analysis
Sequence of GTPase KRas (Homo sapiens), P01116 [G12C] (P01116 whole entry G12C): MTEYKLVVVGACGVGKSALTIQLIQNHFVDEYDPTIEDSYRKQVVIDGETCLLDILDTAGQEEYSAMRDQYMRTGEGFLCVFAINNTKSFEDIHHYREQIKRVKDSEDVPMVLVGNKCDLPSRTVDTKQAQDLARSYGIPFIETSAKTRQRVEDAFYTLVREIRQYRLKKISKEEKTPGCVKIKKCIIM

[38] = system: Cellular tumor antigen p53 (Homo sapiens), P04637 [V272M]; assay: Restoration of p53-V272M mutant transcriptional activity on CDKN1A promoter in human NCI-H1299 cells at 22 uM measured after 24 hrs by firefly/renilla based luciferase reporter assay; type: cell-based; details: filed as activator
[39] = system: Cellular tumor antigen p53 (Homo sapiens), P04637 [V272M]; assay: Restoration of p53-V272M mutant transcriptional activity on PUMA promoter in human NCI-H1299 cells at 22 uM measured after 24 hrs by firefly/renilla based luciferase reporter assay; type: cell-based; details: filed as activator
[40] = molecular target: T1, PML-RARalpha (Homo sapiens); assay: Induction of Flag-tagged PML/RARalpha (unknown origin) degradation overexpressed in HEK293T cells at 7.2 to 36 uM incubated for 16 hrs by Western blot analysis; type: cell-based; details: dose 7.2-36 µM
[41] = molecular target: T1, PML-RARalpha (Homo sapiens); assay: Induction of Flag-tagged PML/RARalpha (unknown origin) degradation overexpressed in HEK293T cells at 13 to 65 uM incubated for 16 hrs by Western blot analysis; type: cell-based; details: dose 13-65 µM
[42] = molecular target: Replicase polyprotein 1ab (Severe acute respiratory syndrome coronavirus 2) (UniProt P0DTD1); assay: Binding affinity to SARS-CoV-2 MPro with exposed Cys145 assessed as increase in melting temperature at 1:15 ratio in HEPES at pH 7.5 by DSF analysis

With `CCN(CC)CCOC(=O)c1ccc(N)cc1` [PROCAINE] the half-life [1] was 4.5 min, the half-life [2] was 1.4 min and the half-life [3] was 9.83 min.
In the case of `S=[As][As]=S` (stereo not given), the Activity [4] is reported as “inactive”.
In the case of `O=[As]O` [SODIUM ARSENITE], the IC50 (NB-4 [5]; Homo sapiens, NB-4, 48 h) is reported as 110 nM and the Activity [6] is reported as “Active”.
In the case of `S1[As]2S[As]3S[As]2S[As]13`, the Activity [4] is reported as “inactive”.
`O=[As][As+](=O)[O-]` (stereo not given) [ARSENIC TRIOXIDE] gave an Activity (NB-4 [7]) of 1.7%, an Activity (NB-4 [8]) of 0.17% and a half-life [9] of ~258 min. It also gave an Activity [10] of 0.6, an Activity [11] of 0.57 and an IC50 (NB-4 [5]; Homo sapiens, NB-4, 48 h) of 940 nM. For the same molecule, the IC50 (U-937 [12]) was 1070 nM, the Activity (NB-4 [13]) was 2.54% and the Activity (NB-4 [14]) was 1.65%. The Activity [15] was 0.41, the Activity (NB-4 [16]) was 2% and the fold change (FC) [17] was 2.2. It also gave an Activity (NB-4 [18]) of 1.93%, an Activity [19] of 0.49 and a viability at 3 µM (NB-4 [20]) of 93.8%. The Activity (NB-4 [21]) was 2.88%, the IC50 (U-937 [22]) was > 2000 nM and the Activity (NB-4 [23]) was 0.21%. For the same molecule, the viability at 27 µM (NB-4 [24]) was 93.3%, the Activity (NB-4 [25]) was 3.59% and the Activity (NB-4 [26]) was 2.83%. For the same molecule, the half-life [27] was ~222 min, the Activity (NB-4 [28]) was 3.42% and the Activity [29] was 0.81. The half-life [30] was 360 min, the Activity (NB-4 [31]) was 3.48% and the viability at 9 µM (NB-4 [32]) was 93.6%. The half-life [33] was 60 min and the Activity (NB-4 [34]) was 0.23%.
With `S1[As]2S[As]3S[As]1S[As](S2)S3` the Activity [4] was “inactive”, the IC50 (NB-4 [5]; nb-4) was 1990 nM and the Activity [35] was “Active”.
In the case of `CC(=O)Oc1ccc(C(c2ccc(OC(C)=O)cc2)c2ccccn2)cc1` [BISACODYL], the half-life [36] is reported as 2.06 min.
In the case of `Nc1ccc([As](=O)(O)O)cc1` [ARSANILIC ACID], the IC50 (NB-4 [5]; Homo sapiens, NB-4, 48 h) is reported as > 50000 nM.
For `C=CC(=O)N1CCN(c2ncnc3c(F)c(-c4c(O)cccc4F)c(Cl)cc23)CC1`, the Activity [37] was “Active”.
For `S=[As](=S)S[As](=S)=S`, the Activity [38] was “Active”, the IC50 (NB-4 [5]; nb-4) was 1200 nM and the Activity [39] was “Active”. The Activity [40] was “Active”.
In the case of `O=S(=O)(O)c1cc(O)c2c(O)c(/N=N/c3ccccc3[As](=O)(O)O)c(S(=O)(=O)O)cc2c1`, the IC50 (NB-4 [5]; Homo sapiens, NB-4, 48 h) is reported as > 50000 nM.
For `O=[As]12O[As]3(=O)O[As](=O)(O1)O[As](=O)(O2)O3`, the IC50 (NB-4 [5]; nb-4) was 5560 nM and the Activity [41] was “Active”.
With `COC(=O)C[C@H](NC(=O)[C@H](C)NC(=O)[C@@H](NC(=O)OCc1ccccc1)C(C)C)C(=O)CF` (Cbz-Val-Ala-Asp(OMe)-CH2F) the Activity [42] was “Active”.
